Experiments:
nuclear Arc = assay: BDNF-induced nuclear Arc, fluorescent immunocytochemistry, primary cortical neurons; format: cell-based, mouse; details: 10 μM co-treated with BDNF; vs BDNF-alone control
Experimental: Indirect immunofluorescence detection of antigens was carried out using cortical neurons cultured on poly-L-lysine/laminin coated coverslips in 24-well plates at a density of 0.1′10^6 per well. After experimental treatment, cells were washed twice with phosphate-buffered saline (PBS) and fixed for 30 min at room temperature with 4% paraformaldehyde in PBS. After fixation, cells were washed twice with PBS, permeabilized with PBST (PBS and 0.25% Triton X-100) for 20 min, blocked in blocking solution (5% goat non-immune serum in PBS) for another 30 min, and finally incubated overnight at 4° C. with the first primary antibody in blocking solution. The next day, coverslips were extensively washed with PBS and incubated for 2 hours at room temperature in the appropriate fluorophore-conjugated secondary antibody solution [Alexa Fluor 488-, Alexa Fluor 594, or Alexa Fluor 647-conjugated secondary antibody (Molecular Probes, Invitrogen) in blocking solution]. After washes with PBS, the coverslips were incubated again overnight in primary antibody solution for the second antigen, and the procedure for conjugation of the fluorophore-conjugated secondary antibody was repeated as above. Finally, cell nuclei were counterstained with 4′,6-diamidino-2-phenylindole (DAPI), and coverslips were mounted on glass slides with ProLong Antifade reagent (Invitrogen).
Cells cultured on coverslips from three independent biological replicates were imaged with a Nikon Eclipse Ti2-E inverted microscope equipped with a motorized stage, image stitching capability, and a 60× objective (Nikon Instruments, Melville, NY). Image analysis was performed with ImageJ and NIS Elements and the following procedure was used to quantify nuclear Arc level in response to BDNF-TrkB signaling. First, original raw tiff files were opened and the nucleus of all neurons in the image was located based on MAP2 immunostaining, then average pixel intensity corresponding to Arc immunofluorescence was measured for a 30-pixel spot positioned at the center of the nuclear compartment. […]

nuclear Arc protein = details: 16.7 μM co-applied with recombinant BDNF for 6 h; cited from earlier work
Arc protein = assay: BDNF-induced Arc expression, western blot, primary cortical neurons; format: cell-based, mouse; details: BDNF co-treatment, tested 1 to 20 μM
Experimental: The following procedure was used to quantify western blot analyses. First, equal quantity of protein lysate was analyzed by SDS-PAGE for each biological replicate. Second, the exposure time of the film to the ECL chemiluminescence was the same for each biological replicate. Third, all the exposed films were scanned on a HP Laser Jet Pro M377dw scanner in grayscale at a resolution of 300 dpi. Fourth, the look-up table (LUT) of the scanned tiff images was inverted and the intensity of each band was individually estimated using the selection tool and the histogram function in Adobe Photoshop CC 2021 software. Finally, the intensity of each band was divided by the intensity of its respective loading control (b-actin) to provide the normalized value used for statistical analysis.

Arc mRNA = Arc mRNA real-time reverse transcriptase PCR, primary cortical neurons; format: cell-based, mouse; details: 10 μM with BDNF; vs BDNF-alone control
GPR150 = target: T1, GPR150 (Homo sapiens, UniProt Q8NGU9); assay: PRESTO-Tango GPCR assay, GPR150; format: cell-based; details: 10 μM
T1 construct: expressed in transfected cells
T1 sequence (Q8NGU9 whole entry): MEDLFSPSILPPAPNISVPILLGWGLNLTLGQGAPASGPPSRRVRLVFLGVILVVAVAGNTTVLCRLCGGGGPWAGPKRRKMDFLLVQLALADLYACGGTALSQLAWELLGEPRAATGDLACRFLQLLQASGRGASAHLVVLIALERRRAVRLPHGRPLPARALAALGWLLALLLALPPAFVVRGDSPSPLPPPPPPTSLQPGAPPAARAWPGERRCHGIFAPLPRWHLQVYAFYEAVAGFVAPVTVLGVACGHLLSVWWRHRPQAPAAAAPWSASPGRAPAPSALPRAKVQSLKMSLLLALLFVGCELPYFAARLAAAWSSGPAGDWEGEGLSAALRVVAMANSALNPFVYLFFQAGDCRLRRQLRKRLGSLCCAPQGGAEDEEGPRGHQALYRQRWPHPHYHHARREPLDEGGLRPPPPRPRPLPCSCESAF

[1] = test system: Neuro2a cells stably expressing Ntrk2-Myc-FLAG; assay: Neurite outgrowth assessment; format: cell-based; details: 10 μM with BDNF
Experimental: For neurite outgrowth assay, Neuro2a cells were cultured in DMEM [supplemented with 10% HyClone FetalClone II serum (Cytiva, Global Life Sciences Solutions, Marlborough, MA), penicillin (50 units/ml), and streptomycin (50 μg/ml)] and transfected overnight using Lipofectamine 2000 (Invitrogen) according to the manufacturer's protocol.
Neuro2A cells transfected with a pCMV6-Ntrk2-Myc-DDK (FLAG) construct were selected with G418 (Geneticin) to produce a stable cell line that constitutively expresses tagged-TrkB. For neurite outgrowth assessment, cells were seeded on 15 mm glass coverslips in 12-well plates at a density of 2.0×10^4 per well. […] Phase contrast digital images were collected with a 20× objective 48 h after plating and the total number of viable cells, total number of neurites, and cells with neurites longer than 2 cells in diameter were counted (five fields per dish, three wells per condition).

A172 GBM cells [2] = assay: AlamarBlue cell viability, A172; format: cell-based; details: 24, 48 and 72 hours, vs DMSO
Experimental: (§1) FIG. 6. Cannflavins A and B reduce the viability of Glioblastoma cells. Cell viability was measured using an AlamarBlue reaction after 24, 48, and 72 hours of treatment. […] Graphs represent mean±SEM.

U87 GBM cells [3] = assay: AlamarBlue cell viability, U87; format: cell-based; details: 24, 48 and 72 hours, vs DMSO
Experimental: as §1

A172 GBM cells [4] = assay: LDH cytotoxicity assay, A172; format: cell-based; details: 24 hours, compared to DMSO
U87 GBM cells [5] = assay: LDH cytotoxicity assay, U87; format: cell-based; details: 24 hours, compared to DMSO
A172 GBM cells [6] = assay: Boyden Chamber invasion assay; format: cell-based; details: 10 μM; for GBM cell invasion: 24 hours
Experimental: FIG. 9. […] Boyden Chamber assay was performed on A172 GBM cells to analyze minimal doses (10 μM) of TrkB inhibitors on preventing GBM cell invasion. Cells were pretreated in low serum media for 24 hours. Bottoms of transwell inserts were coated with fibronectin and tops were coated with Matrigel prior to cells being seeded with treatment media (low serum; n=3 per treatment). After 24 hours, cells were cleaned off the top of the Matrigel, and cells that invaded into the pores of the transwell were stained with 1% Crystal Violet and (A) imaged at 20×.

[7] = test system: prostaglandin E2 production; details: inhibitors of prostaglandin E2 production; cited from earlier work
U87 GBM cells [8] = assay: Scratch migration analysis, U87; details: 24 hours of treatment
A172 GBM cells [9] = assay: Scratch migration analysis, A172; details: 24 hours of treatment
[10] = test system: Ras-Raf-MEK-MAPK and PI3K/AKT/mTOR cascades; assay: Signaling downstream of TrkB, western blot, primary cortical neurons; details: BDNF-induced increase; 0, 1, 5, 10, 20 μM
Experimental: Developing cerebral cortex from E16.5 CD-1 mouse embryos were dissected and then dissociated in trypsin solution for 15 min followed by three washes with phosphate-buffered saline (PBS). Trypsinized tissue was gently triturated to produce single cell suspension. Next, cells were seeded in poly-L-lysine/laminin coated 6-well plates at a density of 1.5×10^6 per well and maintained in Neurobasal medium containing B27 supplement (2%, Invitrogen, Grand Island, NY), penicillin (50 U/ml, Invitrogen), streptomycin (50 μg/ml, Invitrogen) and glutamine (1 mM, Sigma). For experiments involving BDNF (PeproTech, Rocky Hill, NJ), the growth factor was added directly to the culture medium at a final concentration of 100 ng/ml for the indicated period of time.
For western blot analyses, cells were collected by scraping in ice-cold radioimmunoprecipitation assay (RIPA) buffer (50 mM tris-HCl [pH 8.0], 300 mM NaCl, 0.5% Igepal-630, 0.5% deoxycholic acid, 0.1% SDS, 1 mM EDTA) supplemented with a cocktail of protease inhibitors (Complete Protease Inhibitor without EDTA, Roche Applied Science, Indianapolis, IN) and phosphatase inhibitors (Phosphatase Inhibitor Cocktail 3, Sigma-Aldrich). One volume of 2× Laemmli buffer (100 mM tris-HCl [pH 6.8], 4% SDS, 0.15% bromophenol blue, 20% glycerol, 200 mM b-mercaptoethanol) was added and the extracts were boiled for 5 min. Samples were adjusted to an equal concentration after protein concentrations were determined using the BCA assay (Pierce, Thermo Fisher Scientific). Lysates were separated using SDS-PAGE (polyacrylamide gel electrophoresis) and transferred to a nitrocellulose membrane. After transfer, the membrane was blocked in TBST (tris-buffered saline and 0.1% Tween 20) supplemented with 5% nonfat powdered milk and probed with the indicated primary antibody at 4° C. overnight. After washing with TBST, the membrane was incubated with the appropriate secondary antibody and visualized using enhanced chemiluminescence (ECL) reagents according to the manufacturer's guidelines (Pierce, Thermo Fisher Scientific).

[11] = test system: 320 distinct nonolfactory human GPCRs; assay: PRESTO-Tango GPCR assay (GPCRome panel); details: 10 μM; quadruplicate
Mapk = Mapk phosphorylation, western blot, Neuro2a cells stably expressing Ntrk2-Myc-FLAG; format: cell-based; details: with BDNF
medulloblastoma cell = details: TrkB inhibition; cited from earlier work

In the case of `Oc1cc(O)c2c(c1)O[C@H](c1cc(O)c(O)c(O)c1)[C@H](O)C2` [ECGC, (−)-epigallocatechin], the “percentage of nuclei with Arc expression above threshold (Arc-positive neuronal abundance)” value (from here on “percentage of nuclei”) (nuclear Arc) is listed as “moderate increase” and the “nuclear Arc protein level” value (nuclear Arc protein) is listed as “enhance nuclear Arc protein level above the control measure”.
For `O=C(O)[C@H]1O[C@@H](Oc2cc3oc(-c4ccccc4)cc(=O)c3c(O)c2O)[C@H](O)[C@@H](O)[C@@H]1O` [baicalin], the “nuclear Arc protein level” value (nuclear Arc protein) is given as “enhance nuclear Arc protein level above the control measure”.
For `COc1cc(-c2cc(=O)c3c(O)c(CC=C(C)C)c(O)cc3o2)ccc1O` [cannflavin B], the “concentrations resulting in significantly less Arc protein abundance than the BDNF-alone control” value (Arc protein) was 1 to 20 µM, the “Arc mRNA abundance” value (Arc mRNA) was “prevent induction of Arc mRNA expression” and the “increase of GPR150 activity from baseline” value (GPR150) was 4.4 fold-change. The BDNF-induced neurite outgrowths [1] was “reduce”, the “cell viability (AlamarBlue)” value (A172 GBM cells [2]) was “reduced cell viability” and the “cell viability (AlamarBlue)” value (U87 GBM cells [3]) was “reduced cell viability”. For the same molecule, the “LDH release / cell necrosis” value (A172 GBM cells [4]) was “slight increase in LDH release”, the “LDH release / cell necrosis” value (U87 GBM cells [5]) was “slight increase in LDH release” and the GBM cell invasion (A172 GBM cells [6]) was “decrease in GBM cell invasion”. The “efficiency in reducing cell invasion compared with the other TrkB inhibitors” value (A172 GBM cells [6]; no statistical scores) was “tends to be more efficient in reducing cell invasion than cannflavin A and ANA-12”, the “anti-inflammatory potency relative to aspirin” value [7] was “thirty times more potent than aspirin” and the cell migration (U87 GBM cells [8]) was “reduce the migration”. For the same molecule, the cell migration (A172 GBM cells [9]) was “reduce the migration”, the P-Akt level [10] was “sharply reduced” and the P-MAPK level [10] was “sharply reduced”. The P-mTOR level [10] was “sharply reduced” and the P-rpS6 level [10] was “sharply reduced”.
For `O=c1c(-c2ccc(O)cc2)coc2cc(O)cc(O)c12` [genistein], the “percentage of nuclei” value (nuclear Arc) is given as “moderate increase” and the “nuclear Arc protein level” value (nuclear Arc protein) is given as “enhance nuclear Arc protein level above the control measure”.
In the case of `COc1cc(-c2cc(=O)c3c(O)c(C/C=C(\C)CCC=C(C)C)c(O)cc3o2)ccc1O` [cannflavin A], the “concentrations resulting in significantly less Arc protein abundance than the BDNF-alone control” value (Arc protein) is reported as 10 to 20 µM, the “Arc mRNA abundance” value (Arc mRNA) is reported as “prevent induction of Arc mRNA expression” and the BDNF-induced neurite outgrowths [1] is reported as “reduce”. The “cell viability (AlamarBlue)” value (A172 GBM cells [2]) was “reduced cell viability”, the “cell viability (AlamarBlue)” value (U87 GBM cells [3]) was “reduced cell viability” and the “LDH release / cell necrosis” value (A172 GBM cells [4]) was “slight increase in LDH release”. For the same molecule, the “LDH release / cell necrosis” value (U87 GBM cells [5]) was “slight increase in LDH release”, the GBM cell invasion (A172 GBM cells [6]) was “reduce invasion” and the “anti-inflammatory potency relative to aspirin” value [7] was “thirty times more potent than aspirin”. For the same molecule, the cell migration (U87 GBM cells [8]) was “reduce the migration”, the cell migration (A172 GBM cells [9]) was “reduce the migration” and the “agonist activity on GPCRs” value [11] was “no effect on any of the 322 different GPCRs tested”. For the same molecule, the P-Akt level [10] was “sharply reduced”, the P-MAPK level [10] was “sharply reduced” and the P-mTOR level [10] was “sharply reduced”. The P-rpS6 level [10] was “sharply reduced”.
In the case of `O=c1cc(-c2ccccc2)oc2c(O)c(O)ccc12` [7,8-DHF, 7,8-dihydroxyflavone], the “nuclear Arc protein level” value (nuclear Arc protein) is given as “enhance nuclear Arc protein level above the control measure”.
With `O=C(Nc1ccccc1C(=O)NC1CCCCNC1=O)c1cc2ccccc2s1` (stereo not shown) [ANA-12] the P-Mapk levels (Mapk) was “did not observe a decrease”, the “number of cells with neurites twice the length of the cell” value ([1]; 24-hour treatment) was “decrease” and the “total number of neurites per field” value ([1]; 24-hour treatment) was “decrease”. The viable cells ([1]; 24-hour treatment) was “decrease”, the “cell viability (AlamarBlue)” value (A172 GBM cells [2]) was “reduced cell viability” and the “cell viability (AlamarBlue)” value (U87 GBM cells [3]) was “reduced cell viability”. The GBM cell invasion (A172 GBM cells [6]) was “decrease in GBM cell invasion” and the medulloblastoma cell survival (medulloblastoma cell) was “reduced medulloblastoma cell survival by inducing apoptosis”.
For `O=c1c(-c2ccc(O)cc2)coc2cc(O)ccc12` [daidzein], the “percentage of nuclei” value (nuclear Arc) is listed as “moderate increase” and the “nuclear Arc protein level” value (nuclear Arc protein) is listed as “enhance nuclear Arc protein level above the control measure”.
